Here are results for twelve compounds from article PMC11388019, “Autoregulatory mechanism of enzyme activity by the nuclear localization signal of lysine-specific demethylase 1 [drawing 1]” (The Journal of Biological Chemistry, 2024).

The target of one assay is LSD1. As to conditions: H3K4me2 model peptide substrate, Ki/M, read-out: Ki (Ki app), Table S4, cited from earlier work.
Assay [1] has as its target T1, ΔN LSD1-CoREST (Homo sapiens, UniProt O60341+Q9UKL0).
T1 construct: The N terminally truncated (aa 171–852) LSD1 plasmid (pGEX-6P-1-ΔN LSD1); GST (cleaved yes); made in house; host or cells: E. coli Rosetta (DE3) pLysS, co-expression
As to the kind of experiment: Horseradish peroxidase (HRP) coupled demethylase assay on 21 a.a. H3K4me2 peptide substrate. It counts as biochemical. As to conditions: for effect of peptide on LSD1 demethylation activity (absorbance vs time): 10 μM peptide, 10 μM H3K4me2 21 aa substrate; for effect of peptide on LSD1 demethylation activity (absorbance vs time) / Ki: 0.3 μM ΔN LSD1-CoREST; for effect of peptide on LSD1 demethylation activity (absorbance vs time) / Ki / acts as substrate of LSD1: HRP-coupled assay; for Ki: H3K4me2 (1-21) peptide 10-60 μM, 50 mM Hepes pH 7.5, 25 °C, competitive fit, N = 2, read-out: inhibition constant Ki (Ki app) on H3K4me2 peptide substrate; for fold weaker inhibition (Ki) compared to the NLS peptide: 21 aa H3K4me2 model peptide substrate; for acts as substrate of LSD1: 10 μM peptide alone. The method, then:
An inhibition study was performed using horseradish peroxidase (HRP) coupled demethylase assay in the presence of NLS, P1, or P2 peptides, using the 21 a.a H3K4me ([2]) peptide as substrate ([9], [38]). […] When a full inhibition study was performed using different concentrations of the 21 a.a. […] Control experiments indicate that the NLS peptide directly influences the LSD1 catalyzed reaction and that inhibition is not an artifact of the HRP-coupled assay system (Fig. S8).
LSD1-CoREST activity assays were performed using well-established peroxidase-coupled assay that monitors H2O2 production under aerobic conditions ([48]). Initial velocity measurements were measured using a Shimadzu UV2600 UV-Visible spectrophotometer equipped with thermostated cell holder (T = 25 °C). ΔN LSD1-CoREST was buffer exchanged into 25 mM Hepes pH 7.4, 100 mM NaCl, and 5 mM TCEP buffer. Each 150 μl reaction mixture contained 50 mM Hepes (Na) pH 7.5, 0.3 μM ΔN LSD1-CoREST, 1 μg of HRP, 0.1 mM 4-aminoantipyrine, and contained various substrate concentrations (10, 20, 30, 40, and 60 μM). Enzyme reactions were initiated by the addition of substrate; H3K4me2 peptide aa 1 to 21 or the NLS-K114me2 peptide (107–120, dimethylated at K114), into the reaction mixture in quartz cuvette. Activity region monitored was 0 to 30 s, and total time of each measurement was 180 s. Baseline correction was done at 505 to 525 nm. Changes in absorbance were measured at 515 nm wavelength and initial velocity calculations were done using an extinction coefficient of 26,000 M^−1 cm^−1 by Graphpad Prism (http://www.graphpad.com). Initial velocity values obtained from absorbance versus time graph, and they were fitted to Michaelis-Menten equation nonlinear regression and obtained Vmax (maximum velocity), apparent kmax (turnover number) and Km (Michaelis constant).
Peptide inhibition assays in presence of model substrate were conducted as follows using a peroxidase-coupled assay that monitors H2O2 production under aerobic conditions. A 150 μl reaction mixture contained 50 mM Hepes (Na) pH 7.5, 0.3 μM ΔN LSD1-CoREST, 1 μg of HRP, 0.1 mM 4-aminoantipyrine, 1.0 mM 3,5-dichloro-2- hydroxybenzenesulfonic acid, NLSK114me2 10 μM (as inhibitor and substrate)/NLSp∗ 10 μM/NLS 10 μM/P1 10 μM/P2 10 μM and H3K4me2 21aa substrate 10 μM. Enzyme reactions were initiated by the addition of substrate; H3K4me2 peptide aa (1–21) into the reaction mixture in quartz cuvette. Initial velocity values obtained from absorbance versus time graph were fitted to inhibition models using nonlinear regression fit. Complete kinetics profiles were performed for the NLS and NLSp∗ peptides, where different concentrations of NLS (0, 2.5 μM, 5 μM, 10 μM) or NLSp∗ (0, 10 μM, 40 μM, 100 μM) were incubated with freshly prepared ΔN LSD1-CoREST.

For assay [2], the target named is T1, ΔN LSD1-CoREST. As to the kind of experiment: Quantitative Western blot assay of demethylation on H3K4me2 nucleosome substrates in presence of NLS peptide. It counts as biochemical. As to conditions: 2 μM ΔN LSD1-CoREST, 100 nM H3K4me2 nucleosome (147 bp DNA), 50 mM Hepes pH 8.0, 50 mM KCl, 25 °C, from relative kobs, Hill coefficient set to 1, N = 2; read-out: IC50 for inhibition of demethylation on H3K4me2 nucleosome substrates. The text has this:
Based on these coupled assay results and data (Fig. 2, C and D), we developed an in vitro quantitative WB assay to monitor LSD1-catalyzed demethylation on H3K4me2 nucleosome substrates. This approach provides enhanced reliability of the antibody reagents as well as a robust measure of the impact of the NLS peptide on LSD1’s ability to demethylate nucleosomes ([39]). A series of time-course assays with increasing NLS peptide measured the fraction of demethylated H3K4me2 nucleosomes containing a 147 bp DNA, and this was visualized using an anti-H3K4me2-specific antibody or a control H3 antibody (Fig. 4, B and C). Here, dividing the H3K4me2 antibody signal by the H3 antibody signal allowed for quantitation of each data point, where the disappearance of H3K4me2 signal directly corresponds to the NLS's ability to impact LSD1’s demethylation activity. The H3K4me2/H3 ratios were normalized at time zero and plotted as a function of time (minutes), and the determined rate constant (kobs) values were evaluated at increasing NLS concentrations (Fig. 4, B and C).
Quantitative WB activity assays of the ΔN LSD1- CoREST and FL-LSD1- CoREST at 2, 5, 10, and 20 μM concentrations were performed in reaction conditions containing 50 mM Hepes (pH 8.0), 50 mM KCl, 5% glycerol, and 1 mM TCEP and were initiated with 100 nM nucleosome substrate. […]

Entries after “also recorded” stand apart in the source; their conditions may differ. Like-named read-outs stand apart in the source and are kept apart here.

In the case of “ARTKpropQTARKSTGGKAPRKQLA [H3(1-21) K4propargylamine]”, at LSD1 (supplement numbering ref 9), the Ki was 16.6 µM.
As for “ARTKmeQTARmeKSTGGKAPRKQLA [H3(1-21)K4meR8me]”, on LSD1 (supplement numbering ref 7), the Ki was 100 µM.
Regarding “REMDESLANLSEDEYY [P1, negatively charged LSD1 peptide region a.a; 121–136]”, on ΔN LSD1-CoREST [1], the “effect of peptide on LSD1 demethylation activity (absorbance vs time)” value (“effect of peptide … (absorbance vs time)” below) is reported as “do not inhibit; also recorded: did not influence the demethylation reaction”.
On to PRSFLVRKPSDPNRKPNYSE [SNAIL (1-20)], for which the Ki on LSD1 (supplement numbering ref 4) was 0.21 µM.
Regarding “YSEEERNAKAEKEKK [P2, neutral-charged α-helical containing LSD1 peptide region a.a; 137–151]”, the “effect of peptide … (absorbance vs time)” value at ΔN LSD1-CoREST [1] is recorded as “do not inhibit; also recorded: did not influence the demethylation reaction”.
With “ARTKQTARKSTG [H3 (1−12), histone H3 peptide residues 1-12]”, the Ki at LSD1 (supplement numbering ref 5, 6) is 199 µM.
Consider “ARTKmeQTARKSpTGGKAPRKQLA [H3(1-21) K4me S10p]”, for which, on LSD1 (supplement numbering ref 5, 6), the Ki is 31 µM.
On to `CC(=O)NCC(=O)N[C@@H](CCCNC(=N)N)C(=O)N[C@@H](CCCNC(=N)N)C(=O)N[C@H](C(=O)N[C@@H](CO)C(=O)N[C@@H](CCCNC(=N)N)C(=O)N[C@@H](CCCNC(=N)N)C(=O)N[C@@H](CCCCN)C(=O)N[C@@H](CCCNC(=N)N)C(=O)N[C@@H](C)C(=O)N[C@@H](CCCCN)C(=O)N[C@H](C(=O)N[C@@H](CCC(=O)O)C(=O)N[C@@H](Cc1ccc(O)cc1)C(N)=O)C(C)C)[C@@H](C)O` [NLS], for which, at ΔN LSD1-CoREST [2], the IC50 was found to be 30.4 ± 3.2 µM. In addition, the “effect of peptide … (absorbance vs time)” value on ΔN LSD1-CoREST [1] (listed as NLS peptide) was “inhibits LSD1; also recorded: both inhibit LSD1 activity; also recorded: acted as an inhibitor”. Moreover, the Ki at ΔN LSD1-CoREST [1] stood at 3.3 ± 0.6 µM. Also, the mode of inhibition entry at ΔN LSD1-CoREST [1] (Lineweaver Burk plot, 0-10 μM NLS peptide, H3K4me2 peptide substrate) is given as “competitive inhibition; also recorded: competitive inhibitor”.
Regarding PRGFLVKRSKKSTPVSYRVR [INSM1 (1−20)], the Ki at LSD1 (supplement numbering ref 4) was 0.24 µM.
Regarding Ac-GRRDDRRKRAKVEY-NH2 [NLS-p∗], at ΔN LSD1-CoREST [1], the “effect of peptide … (absorbance vs time)” value was “do not obstruct LSD1-catalyzed demethylation”, the “fold weaker inhibition (Ki) compared to the NLS peptide” value is listed as “approximately 12 fold” and the Ki turned out to be 38.7 ± 1.8 µM. Moreover, at ΔN LSD1-CoREST [1] (listed as NLSp*), the “effect of peptide … (absorbance vs time)” value is given as “does not inhibit LSD1-catalyzed” and the “fold weaker inhibition (Ki) compared to the NLS peptide” value was 10 fold.
On to “GRRTSRRKme2RAKVEY [NLS-K114me2, dimethylated K114 NLS peptide, aa 107–120]”, for which the “acts as substrate of LSD1” value on ΔN LSD1-CoREST [1] is recorded as “does not serve as a substrate”; on ΔN LSD1-CoREST [1] (listed as NLS K114me2), “does NOT act as a substrate of LSD1”. Also, the “effect of peptide … (absorbance vs time)” value is recorded as “inhibition of demethylation activity was retained” on ΔN LSD1-CoREST [1] and “both inhibit LSD1 activity” on ΔN LSD1-CoREST [1] (listed as NLS K114 me2).
With “QTARKSTGGKAPRKQLA [H3(5-21), histone H3 peptide residues 5-21]”, on LSD1 (supplement numbering ref 5, 6), the Ki was 87 µM.

The term IC50 denotes the concentration needed to halve the response being measured.
